# Experiments:
# SARS-CoV-2 = experiment: Antiviral activity against SARS-CoV-2 NRC-03-nhCoV infected in african green monkey Vero E6 cells assessed as inhibition of virus-induced cytopathic effect measured after 72 hrs by crystal violet staining based assay; assay type: functional, organism-based; details: Severe acute respiratory syndrome coronavirus 2, NRC-03-nhCoV, Vero C1008, 72 h
# [1] = Cytotoxicity against African green monkey Vero E6 cells measured after 72 hrs by MTT assay; assay type: toxicity, cell-based, Vero C1008; details: chlorocebus sabaeus
smiles,measurement,setting,value
CCC(CC)COC(=O)[C@H](C)N[P@](=O)(OC[C@H]1O[C@@](C#N)(c2ccc3c(N)ncnn23)[C@H](O)[C@@H]1O)Oc1ccccc1,IC50,SARS-CoV-2,10.1 µM
same,CC50 at 72 h,[1],608 µM

# — ChEMBL document CHEMBL5257159, “Insights into targeting SARS-CoV-2: design, synthesis, in silico studies and antiviral evaluation of new dimethylxanthine derivatives” (RSC Med Chem, 2023)
